Laboratory results as given in patent US10328053B2 (Gilead Sciences, Inc., priority 2016, dated 2019).

Experiments:
[1] = system: pooled cryopreserved hepatocytes; assay: Hepatic Stability Assay (in vitro half-life method); format: in vitro ADME; design: dose or concentration left out as unconfirmed; settings: 37° C., 1×10^6 cells/mL, 0-6 hours, LC-MS/MS, 39.5 hours is the maximum detectable half life
Outline: (§1)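 Pooled cryopreserved hepatocytes (1×10^6 cells/mL) incubated with compound at […] test concentration, 37° C.; samples at 0, 1, 3 and 6 h quantified by LC-MS/MS. Half-life from rate of compound disappearance, scaled to predicted hepatic clearance via well-stirred model.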

[2] = system: HBV AD38 viral particles in HepG2 cell line overexpressing NTCP; assay: HBV DNA Quantification Assay; format: cell-based; settings: Hepatitis B virus, HepG2, 120 h, HBV-infected HepG2-NTCP cells, 5 days incubation, HBV DNA in culture supernatant (QuantiGene 2.0); geometric mean of a minimum of four determinations
Outline: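 Antiviral EC50 derived by four-parameter dose-response fit and given as geometric mean of at least four runs. Read-out was branched-DNA (QuantiGene 2.0) luminescence for HBV DNA in culture supernatant after 5 days of compound exposure. Cells: HepG2-NTCP infected 4 days beforehand with AD38 particles, 4000 genome equivalents per cell.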

[3] = Hepatic Stability Assay (in vitro half-life method); format: in vitro ADME; design: dose or concentration left out as unconfirmed; settings: pooled cryopreserved hepatocytes, 37° C., 1×10^6 cells/mL, 0-6 hours, LC-MS/MS, 39.5 hours is the maximum detectable half life, read-out: t½ (converted)
Outline: as §1

Compound | t½ [1] [h] | EC50 [2] [nM] | half-life [3] [h]
Cc1c(C(=O)C(=O)N[C@H](C)C(F)(F)F)c2n(c1C(=O)Nc1ccc(F)c(Cl)c1)C(C)CC2 (single isomer, unassigned) [Example 25] | 9.1 | – | –
Cc1c(C(=O)C(=O)NC2(c3c[nH]nn3)CC2)c2n(c1C(=O)Nc1ccnc(C(F)F)c1)[C@@H]1C[C@@H]1C2 [Example 56, (1aR,6aR)-5-(2-((1-(1H-1,2,3-triazol-4-yl)cyclopropyl)amino)-2-oxoacetyl)-N-(2-(difluoromethyl)pyridin-4-yl)-4-methyl-1,1a,6,6a-tetrahydrocyclopropa[b]pyrrolizine-3-carboxamide] | 39.5 | – | –
CNC(=O)C1(NC(=O)C(=O)c2c(C)c(C(=O)Nc3ccc(F)c(F)c3)n3c2CCC3)CC(F)(F)C1 [Example 44, 7-(2-((3,3-difluoro-1-(methylcarbamoyl)cyclobutyl)amino)-2-oxoacetyl)-N-(3,4-difluorophenyl)-6-methyl-2,3-dihydro-1H-pyrrolizine-5-carboxamide] | 39.5 | 31 | –
CNC(=O)C1(NC(=O)C(=O)c2c(C)c(C(=O)Nc3ccc(F)c(C(F)F)c3)n3c2CCC3)CC(F)(F)C1 [Example 116, 7-(2-((3,3-difluoro-1-(methylcarbamoyl)cyclobutyl)amino)-2-oxoacetyl)-N-(3-(difluoromethyl)-4-fluorophenyl)-6-methyl-2,3-dihydro-1H-pyrrolizine-5-carboxamide] | 39.5 | – | –
CNC(=O)C1(NC(=O)C(=O)c2c(C)c(C(=O)Nc3cccc(C(F)F)c3)n3c2CCC3)CC(F)(F)C1 [Example 115, 7-(2-((3,3-difluoro-1-(methylcarbamoyl)cyclobutyl)amino)-2-oxoacetyl)-N-(3-(difluoromethyl)phenyl)-6-methyl-2,3-dihydro-1H-pyrrolizine-5-carboxamide] | 39.5 | – | –
CNC(=O)C1(NC(=O)C(=O)c2c(C)c(C(=O)Nc3ccc(F)c(F)c3)n3c2C[C@@H](F)C3)CC(F)(F)C1 [Example 49, (R)-7-(2-((3,3-difluoro-1-(methylcarbamoyl)cyclobutyl)amino)-2-oxoacetyl)-N-(3,4-difluorophenyl)-2-fluoro-6-methyl-2,3-dihydro-1H-pyrrolizine-5-carboxamide] | 39.5 | – | –
CNC(=O)C1(NC(=O)C(=O)c2c(C)c(C(=O)Nc3ccc(F)c(C#N)c3)n3c2CCC3)CC(F)(F)C1 [Example 35, N-(3-cyano-4-fluorophenyl)-7-(2-((3,3-difluoro-1-(methylcarbamoyl)cyclobutyl)amino)-2-oxoacetyl)-6-methyl-2,3-dihydro-1H-pyrrolizine-5-carboxamide] | 39.5 | 109 | –
Cc1c(C(=O)C(=O)NC2(c3c[nH]nn3)CC2)c2n(c1C(=O)Nc1cccc(Cl)c1)CCC2 [Example 74, 7-(2-((1-(1H-1,2,3-triazol-4-yl)cyclopropyl)amino)-2-oxoacetyl)-N-(3-chlorophenyl)-6-methyl-2,3-dihydro-1H-pyrrolizine-5-carboxamide] | – | 42 | 22.2
C#CC1(NC(=O)C(=O)c2c(C)c(C(=O)Nc3ccc(F)c(Cl)c3)n3c2CCC3)CC(F)(F)C1 [Example 60, N-(3-chloro-4-fluorophenyl)-7-(2-((1-ethynyl-3,3-difluorocyclobutyl)amino)-2-oxoacetyl)-6-methyl-2,3-dihydro-1H-pyrrolizine-5-carboxamide] | – | 1.8 | 3.9

Further lines, with some results ahead:

t½ [1] [h] | Compound | EC50 [2] [nM] | half-life [3] [h]
2.7 | CNC(=O)C1(NC(=O)C(=O)c2c(C)c(C(=O)Nc3ccc(F)c(Cl)c3)n3c2CCC3C)CC(F)(F)C1 (single isomer, unassigned) [Example 22, N-(3-chloro-4-fluorophenyl)-7-(2-((3,3-difluoro-1-(methylcarbamoyl)cyclobutyl)amino)-2-oxoacetyl)-3,6-dimethyl-2,3-dihydro-1H-pyrrolizine-5-carboxamide] | – | –
39.5 | Cc1c(C(=O)C(=O)NC2(C)CS(=O)(=O)C2)c2n(c1C(=O)Nc1ccc(F)c(C#N)c1)[C@@H]1C[C@@H]1C2 [Example 72, (1aR,6aR)—N-(3-cyano-4-fluorophenyl)-4-methyl-5-(2-((3-methyl-1,1-dioxidothietan-3-yl)amino)-2-oxoacetyl)-1,1a,6,6a-tetrahydrocyclopropa[b]pyrrolizine-3-carboxamide] | – | –
9.6 | CNC(=O)C1(NC(=O)C(=O)c2c(C)c(C(=O)Nc3ccc(F)c(Cl)c3)n3c2CCC3C)CC(F)(F)C1 (single isomer, unassigned) [Example 23, N-(3-chloro-4-fluorophenyl)-7-(2-((3,3-difluoro-1-(methylcarbamoyl)cyclobutyl)amino)-2-oxoacetyl)-3,6-dimethyl-2,3-dihydro-1H-pyrrolizine-5-carboxamide] | – | –
39.5 | CNC(=O)C1(NC(=O)C(=O)c2c(C)c(C(=O)Nc3ccc(F)cc3)n3c2CCC3)CC(F)(F)C1 [Example 47, 7-(2-((3,3-difluoro-1-(methylcarbamoyl)cyclobutyl)amino)-2-oxoacetyl)-N-(4-fluorophenyl)-6-methyl-2,3-dihydro-1H-pyrrolizine-5-carboxamide] | – | –
39.5 | Cc1c(C(=O)C(=O)NC2(c3c[nH]nn3)CC2)c2n(c1C(=O)Nc1ccc(F)cc1)CCC2 [Example 70, 7-(2-((1-(1H-1,2,3-triazol-4-yl)cyclopropyl)amino)-2-oxoacetyl)-N-(4-fluorophenyl)-6-methyl-2,3-dihydro-1H-pyrrolizine-5-carboxamide] | – | –
